The source made the active and inactive calls. The calls are words filed in the database; no cut-off is given here.
Tests used:
[1] = molecular target: Sigma non-opioid intracellular receptor 1 (Rattus norvegicus) (UniProt Q9R0C9); assay: Agonist activity at sigma 1 receptor in rat PC12 cells assessed as potentiation of NGF-induced neurite outgrowth at 2.5 to 5 uM after 5 days by phase contrast microscopic analysis; format: cell-based; conditions: PC-12
[2] = molecular target: Sigma non-opioid intracellular receptor 1 (Cavia porcellus, UniProt Q60492); assay: Displacement of [3H](+)-pentazocine from sigma-1 receptor in guinea pig brain cortex after 120 mins by scintillation counting analysis
Sigma non-opioid intracellular receptor 1, sequence (Q60492 whole entry): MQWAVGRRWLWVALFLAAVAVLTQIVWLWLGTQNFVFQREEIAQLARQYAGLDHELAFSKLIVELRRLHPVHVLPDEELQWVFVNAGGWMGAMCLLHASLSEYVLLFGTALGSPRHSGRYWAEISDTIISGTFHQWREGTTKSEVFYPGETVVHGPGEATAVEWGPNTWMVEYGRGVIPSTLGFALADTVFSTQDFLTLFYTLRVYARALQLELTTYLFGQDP

[3] = Displacement of [3H]-DTG from sigma-2 receptor in Sprague-Dawley rat liver membranes after 120 mins by scintillation counting analysis; format: cell membranes, Membrane
[4] = molecular target: Sigma non-opioid intracellular receptor 1 (Rattus norvegicus) (UniProt Q9R0C9); assay: Agonist activity at sigma 1 receptor in rat PC12 cells assessed as potentiation of NGF-induced neurite outgrowth at 2.5 to 5 uM after 5 days by phase contrast microscopic analysis in presence of sigma 1 antagonist NE-100; format: cell-based; conditions: PC-12
[5] = molecular target: Sigma non-opioid intracellular receptor 1 (Rattus norvegicus) (UniProt Q9R0C9); assay: Agonist activity at sigma 1 receptor in rat PC12 cells assessed as potentiation of NGF-induced neurite outgrowth at 2.5 to 5 uM after 5 days by phase contrast microscopic analysis relative to NGF-treated control; format: cell-based; conditions: PC-12
[6] = Selectivity ratio of Ki for sigma-2 receptor in Sprague-Dawley rat liver membrane to Ki for sigma-1 receptor in guinea pig brain cortex; format: cell membranes

Sigma non-opioid intracellular receptor 1 (Rattus norvegicus), sequence (Q9R0C9 whole entry): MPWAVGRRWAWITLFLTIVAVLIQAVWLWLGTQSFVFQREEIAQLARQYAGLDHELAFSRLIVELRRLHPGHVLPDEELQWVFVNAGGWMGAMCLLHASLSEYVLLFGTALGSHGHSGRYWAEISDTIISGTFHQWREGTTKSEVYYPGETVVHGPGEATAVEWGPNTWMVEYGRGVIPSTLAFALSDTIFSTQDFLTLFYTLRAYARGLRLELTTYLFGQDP

Activity [1] | Ki [2] [nM] | Ki [3] [nM] | Activity [4] | Activity [5] | Ratio Ki [6] | Compound
Active | 6.57 | 34.6 | inactive |  |  | CC(O)(CCN1CCCCC1)c1ccc(-c2ccccc2)cc1 (racemic)
 | 1.9 | 98 |  |  |  | C[C@@H](CCN1CCCCC1)c1ccc(-c2ccccc2)cc1
 | 63 | 75 |  |  |  | CN(C)CC[C@](C)(O)c1ccc2ccccc2c1
 | 0.9 | 103 |  |  |  | CC(CCN1CCCCC1)c1ccc(-c2ccccc2)cc1 (racemic)
 | 39 | 4300 |  | inactive |  | C[C@@](O)(CCN1CCCCC1)c1ccc(-c2ccccc2)cc1
 | 1.8 | 45 |  |  |  | C[C@H](CCN1CCCCC1)c1ccc(-c2ccccc2)cc1
 | 205 | 651 |  |  |  | CN(C)CC[C@@](C)(O)c1ccc2ccccc2c1
Active | 4.7 | 1800 | inactive |  | 382 | C[C@](O)(CCN1CCCCC1)c1ccc(-c2ccccc2)cc1

More lines, now with the values behind:

Compound | Activity [1] | Ki [2] [nM] | Ki [3] [nM] | Activity [4] | Activity [5] | Ratio Ki [6]
CN(C)CCC(C)(O)c1ccc2ccccc2c1 (racemic) |  | 77 | 66 |  |  | 
COc1ccc2cc([C@]3(O)CCN(C)[C@H]3C)ccc2c1 |  | 1200 | 1900 |  |  | 
COc1ccc2cc([C@@](C)(O)CCN(C)C)ccc2c1 |  | 25 | 1100 |  |  | 
COc1ccc2cc(C(C)(O)CCN(C)C)ccc2c1 (racemic) |  | 41 | 97 |  |  | 
C[C@@H]1N(C)CC[C@@]1(O)c1ccc2ccccc2c1 |  | 26 | 432 |  |  | 
COc1ccc2cc(C3(O)CCN(C)C3C)ccc2c1 (configuration not stated) |  | 1900 | 1500 |  |  | 
COc1ccc2cc([C@@]3(O)CCN(C)[C@@H]3C)ccc2c1 |  | 1500 | 1200 |  |  | 
COc1ccc2cc([C@](C)(O)CCN(C)C)ccc2c1 |  | 51 | 133 |  |  | 
C[C@H]1N(C)CC[C@]1(O)c1ccc2ccccc2c1 |  | 86 | 94 |  |  | 
CC1N(C)CCC1(O)c1ccc2ccccc2c1 (racemic) |  | 65 | 366 |  |  | 

— ChEMBL document CHEMBL3621097, “A step forward in the sigma enigma: a role for chirality in the sigma1 receptorligand interaction?” (Medchemcomm, 2015)
